Measurements: patent US7879876B2, “Sulfonamide derivatives and use thereof for the modulation of metalloproteinases” (Merck Serono SA, priority 2005, dated 2011)

Tests used:
Type in all cases: biochemical
metalloelastase (MMP-12) = metalloelastase (MMP-12) (Homo sapiens, UniProt P39900); assay: MMP-12 enzyme inhibition assay (coumarin-labelled peptide substrate); conditions: read-out: IC50 MMP12
Method in brief: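 Recombinant human MMP-12 assayed per the MMP-9 protocol: Tris-HCl pH 7.6 buffer with NaCl, CaCl2, Brij 35; McaPLGLDpaAR substrate, compounds 100 μM–5.1 nM in duplicate, 2 h at 37° C. Fluorescence read at 405 nm (320 nm excitation) without stopping; IC50 from four-parameter fit.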

gelatinase A (MMP-2) = target: T1, gelatinase A (MMP-2) (Homo sapiens, UniProt P08253); assay: MMP-2 enzyme inhibition assay (coumarin-labelled peptide substrate); conditions: read-out: IC50 MMP2
T1 sequence (P08253 110-660): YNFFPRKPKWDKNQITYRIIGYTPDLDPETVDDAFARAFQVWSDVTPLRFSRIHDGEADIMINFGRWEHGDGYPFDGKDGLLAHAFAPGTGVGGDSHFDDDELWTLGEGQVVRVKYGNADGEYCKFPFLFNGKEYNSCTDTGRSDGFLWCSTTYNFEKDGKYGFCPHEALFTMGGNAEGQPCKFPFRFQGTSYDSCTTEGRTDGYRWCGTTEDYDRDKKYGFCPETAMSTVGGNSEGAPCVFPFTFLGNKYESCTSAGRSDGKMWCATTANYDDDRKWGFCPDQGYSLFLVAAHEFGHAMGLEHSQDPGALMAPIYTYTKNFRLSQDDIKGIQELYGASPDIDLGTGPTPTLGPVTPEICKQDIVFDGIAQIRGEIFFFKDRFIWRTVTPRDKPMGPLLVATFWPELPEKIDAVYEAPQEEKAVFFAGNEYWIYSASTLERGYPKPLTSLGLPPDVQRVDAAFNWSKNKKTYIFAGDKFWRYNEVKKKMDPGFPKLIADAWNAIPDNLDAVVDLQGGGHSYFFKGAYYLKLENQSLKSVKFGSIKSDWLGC
Method in brief: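 Recombinant human MMP-2, APMA-activated if necessary, run as for the MMP-9 protocol: McaPLGLDpaAR substrate (8 μM working dilution) in 100 mM Tris-HCl pH 7.6, 100 mM NaCl, 10 mM CaCl2, 0.05% Brij 35; ten 3-fold concentrations (100 μM–5.1 nM) in duplicate, 2 h at 37° C. Fluorescence ex 320/em 405 nm, unstopped; IC50 from four-parameter fit.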

MMP-14 = MMP-14 (Homo sapiens, UniProt P50281); assay: MMP-14 enzyme inhibition assay (coumarin-labelled peptide substrate); conditions: read-out: percentage inhibition MMP14
Method in brief: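 Recombinant human enzyme, APMA-activated if necessary, was incubated with McaPLGLDpaAR substrate and compound (10 concentrations in duplicate, 100 μM to 5.1 nM) in Tris-HCl pH 7.6 with NaCl, CaCl2 and Brij 35 for 2 h at 37 °C. Fluorescence was read at 320/405 nm, and IC50 was taken from a four-parameter fit.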

Sequence of metalloelastase (MMP-12) (P39900 106-470): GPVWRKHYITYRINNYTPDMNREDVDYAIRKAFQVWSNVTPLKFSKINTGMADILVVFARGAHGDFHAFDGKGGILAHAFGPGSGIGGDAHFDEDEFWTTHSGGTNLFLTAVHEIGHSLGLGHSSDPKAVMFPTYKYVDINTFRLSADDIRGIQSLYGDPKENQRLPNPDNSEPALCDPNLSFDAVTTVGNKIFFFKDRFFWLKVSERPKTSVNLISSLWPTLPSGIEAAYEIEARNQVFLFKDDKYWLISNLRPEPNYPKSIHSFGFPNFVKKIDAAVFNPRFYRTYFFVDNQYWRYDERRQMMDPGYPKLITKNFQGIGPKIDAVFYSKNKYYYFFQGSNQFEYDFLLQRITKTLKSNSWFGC

O=CN(O)C(CS(=O)(=O)N1CCc2cc(C(F)(F)F)ccc2C1)C1CCCC1 (stereo not drawn) [Example 25, N-(1-cyclopentyl-2-{[6-(trifluoromethyl)-3,4-dihydro-isoquinolin-2(1H)-yl]sulfonyl}ethyl)-N-hydroxyformamide]
IC50 (metalloelastase (MMP-12)): 6 nM
IC50 (gelatinase A (MMP-2)): 78 nM
inhibition at 0.1 µM (MMP-14): 0%
inhibition at 5 µM (MMP-14): 73%

CC(C)(C)CC(CS(=O)(=O)N1Cc2ccc(F)cc2C1)N(O)C=O (stereo not drawn) [Example 26, N-(1-{[(5-fluoro-1,3-dihydro-2H-isoindol-2-yl)sulfonyl]methyl}-3,3-dimethylbutyl)-N-hydroxyformamide]
IC50 (metalloelastase (MMP-12)): 10 nM
IC50 (gelatinase A (MMP-2)): 60 nM
inhibition at 5 µM (MMP-14): 82%

O=CN(O)[C@H](CS(=O)(=O)N1CCc2ccc(C(F)(F)F)cc2C1)[C@H]1CCCO1 [Example 27, N-hydroxy-N-((1S)-1-[(2R)-tetrahydrofuran-2-yl]-2-{[7-(trifluoromethyl)-3,4-dihydroisoquinolin-2(1H)-yl]sulfonyl}ethyl)formamide]
IC50 (metalloelastase (MMP-12)): 6.9 nM
IC50 (gelatinase A (MMP-2)): 58 nM
inhibition at 5 µM (MMP-14): 41%

CC1(C)OC[C@H](C(CS(=O)(=O)N2CCc3ccc(C(F)(F)F)cc3C2)N(O)C=O)O1 (stereo partly drawn) [Example 28, N-(1-[(4S)-2,2-dimethyl-1,3-dioxolan-4-yl]-2-{[7-(trifluoro-methyl)-3,4-dihydroisoquinolin-2(1H)-yl]sulfonyl}ethyl)-N-hydroxyformamide]
IC50 (metalloelastase (MMP-12)): 3.9 nM
IC50 (gelatinase A (MMP-2)): 45 nM
inhibition at 5 µM (MMP-14): 62%

O=CN(O)[C@H](CS(=O)(=O)N1Cc2ccc(F)cc2C1)[C@H]1CCCO1 [Example 29, N-{(1S)-2-[(5-fluoro-1,3-dihydro-2H-isoindol-2-yl)-sulfonyl]-1-[(2R)-tetrahydrofuran-2-yl]ethyl}-N-hydroxyformamide]
IC50 (metalloelastase (MMP-12)): 14 nM
IC50 (gelatinase A (MMP-2)): 150 nM
inhibition at 5 µM (MMP-14): 78%

CCC#CCC(C)(C)C(CS(=O)(=O)N1CCc2cc(C(F)(F)F)ccc2C1)N(O)C=O (stereo not drawn) [Example 30, N-[2,2-dimethyl-1-({[6-(trifluoromethyl)-3,4-dihydro-isoquinolin-2(1H)-yl]sulfonyl}methyl)hept-4-yn-1-yl]-N-hydroxyformamide]
IC50 (metalloelastase (MMP-12)): 32 nM
IC50 (gelatinase A (MMP-2)): 880 nM
inhibition at 5 µM (MMP-14): 38%

CC(C)(Cc1ccccc1)C(CS(=O)(=O)N1CCc2cc(C(F)(F)F)ccc2C1)N(O)C=O (stereo not drawn) [Example 31, N-[2,2-dimethyl-3-phenyl-1-({[6-(trifluoromethyl)-3,4-dihydroisoquinolin-2(1H)-yl]sulfonyl}methyl)propyl]-N-hydroxyformamide]
IC50 (metalloelastase (MMP-12)): 40 nM
IC50 (gelatinase A (MMP-2)): 939 nM
inhibition at 5 µM (MMP-14): 19%

O=CN(O)[C@@H](CS(=O)(=O)N1CCc2ccc(C(F)(F)F)cc2C1)[C@H]1CCCO1 [Example 32, N-hydroxy-N-((1R)-1-[(2R)-tetrahydrofuran-2-yl]-2-{[7-(trifluoromethyl)-3,4-dihydroisoquinolin-2(1H)-yl]sulfonyl}ethyl)formamide]
IC50 (metalloelastase (MMP-12)): 168 nM
IC50 (gelatinase A (MMP-2)): > 5000 nM
inhibition at 5 µM (MMP-14): 14%

COc1ccc2c(c1)CN(S(=O)(=O)CC(CCC1CCCO1)N(O)C=O)CC2 (stereo not drawn) [Example 33, N-hydroxy-N-[1-{[(7-methoxy-3,4-dihydroisoquinolin-2(1H)-yl)sulfonyl]methyl}-3-(tetrahydrofuran-2-yl)propyl]formamide]
IC50 (metalloelastase (MMP-12)): 27 nM
IC50 (gelatinase A (MMP-2)): 151 nM
inhibition at 5 µM (MMP-14): 30%

CCC(CC)C(CS(=O)(=O)N1CCc2cc(Cl)c(Cl)cc2C1)N(O)C=O (stereo not drawn) [Example 34, N-(1-{[(6,7-dichloro-3,4-dihydroisoquinolin-2(1H)-yl)-sulfonyl]methyl}-2-ethylbutyl)-N-hydroxyformamide]
IC50 (metalloelastase (MMP-12)): 6 nM
IC50 (gelatinase A (MMP-2)): 35 nM
inhibition at 0.1 µM (MMP-14): 3%
inhibition at 5 µM (MMP-14): 82%

CCC(CC)C(CS(=O)(=O)N1CCc2cc(C(C)C)ccc2C1)N(O)C=O (stereo not drawn) [Example 35, N-(2-ethyl-1-{[(6-isopropyl-3,4-dihydroisoquinolin-2(1H)-yl)sulfonyl]methyl}butyl)-N-hydroxyformamide]
IC50 (metalloelastase (MMP-12)): 4.2 nM
IC50 (gelatinase A (MMP-2)): 62 nM
inhibition at 0.1 µM (MMP-14): 7%
inhibition at 5 µM (MMP-14): 85%

CCC(CC)C(CS(=O)(=O)N1CCc2ccc(Br)cc2C1)N(O)C=O (stereo not drawn) [Example 36, N-(1-{[(7-bromo-3,4-dihydroisoquinolin-2(1H)-yl)sulfonyl]-methyl}-2-ethylbutyl)-N-hydroxyformamide]
IC50 (metalloelastase (MMP-12)): 5.7 nM
IC50 (gelatinase A (MMP-2)): 41 nM
inhibition at 0.1 µM (MMP-14): 3%
inhibition at 5 µM (MMP-14): 75%

CCC(CC)C(CS(=O)(=O)N1CCc2cc(C(F)(F)F)ccc2C1)N(O)C=O (stereo not drawn) [Example 37, N-[2-ethyl-1-({[6-(trifluoromethyl)-3,4-dihydroisoquinolin-2(1H)-yl]sulfonyl}methyl)butyl]-N-hydroxyformamide]
IC50 (metalloelastase (MMP-12)): 4.2 nM
IC50 (gelatinase A (MMP-2)): 35 nM
inhibition at 0.1 µM (MMP-14): 8%
inhibition at 5 µM (MMP-14): 83%

CCC(CC)C(CS(=O)(=O)N1CCc2ccc(OC)cc2C1)N(O)C=O (stereo not drawn) [Example 38, N-(2-ethyl-1-{[(7-methoxy-3,4-dihydroisoquinolin-2(1H)-yl)sulfonyl]methyl}butyl)-N-hydroxyformamide]
IC50 (metalloelastase (MMP-12)): 7.2 nM
IC50 (gelatinase A (MMP-2)): 71 nM
inhibition at 5 µM (MMP-14): 49%

CC(C)C(CS(=O)(=O)N1CCc2cc(Cl)c(Cl)cc2C1)N(O)C=O (stereo not drawn) [Example 39, N-(1-{[(6,7-dichloro-3,4-dihydroisoquinolin-2(1H)-yl)-sulfonyl]methyl}-2-methylpropyl)-N-hydroxyformamide]
IC50 (metalloelastase (MMP-12)): 4.1 nM
IC50 (gelatinase A (MMP-2)): 16 nM
inhibition at 0.1 µM (MMP-14): 10%
inhibition at 5 µM (MMP-14): 87%

CCCOc1ccc2c(c1)CN(S(=O)(=O)CC(CC(C)(C)C)N(O)C=O)CC2 (stereo not drawn) [Example 40, N-(3,3-dimethyl-1-{[(7-propoxy-3,4-dihydroisoquinolin-2(1H)-yl)sulfonyl]methyl}butyl)-N-hydroxyformamide]
IC50 (metalloelastase (MMP-12)): 15 nM
IC50 (gelatinase A (MMP-2)): 77 nM
inhibition at 5 µM (MMP-14): 54%

CC(C)(C)CC(CS(=O)(=O)N1CCc2ccc(Cl)cc2C1)N(O)C=O (stereo not drawn) [Example 41, N-(1-{[(7-chloro-3,4-dihydroisoquinolin-2(1H)-yl)sulfonyl]-methyl}-3,3-dimethylbutyl)-N-hydroxyformamide]
IC50 (metalloelastase (MMP-12)): 11 nM
IC50 (gelatinase A (MMP-2)): 87 nM
inhibition at 0.1 µM (MMP-14): 5%
inhibition at 5 µM (MMP-14): 74%

CC(C)(C)CC(CS(=O)(=O)N1CCc2cc(Cl)c(Cl)cc2C1)N(O)C=O (stereo not drawn) [Example 42, N-(1-{[(6,7-dichloro-3,4-dihydroisoquinolin-2(1H)-yl)-sulfonyl]methyl}-3,3-dimethylbutyl)-N-hydroxyformamide]
IC50 (metalloelastase (MMP-12)): 4.4 nM
IC50 (gelatinase A (MMP-2)): 31 nM
inhibition at 0.1 µM (MMP-14): 15%
inhibition at 5 µM (MMP-14): 88%

CC(C)(C)CC(CS(=O)(=O)N1CCc2cc(C(F)(F)F)ccc2C1)N(O)C=O (stereo not drawn) [Example 43, N-[3,3-dimethyl-1-({[6-(trifluoromethyl)-3,4-dihydro-isoquinolin-2(1H)-yl]sulfonyl}methyl)butyl]-N-hydroxyformamide]
IC50 (metalloelastase (MMP-12)): 3.2 nM
IC50 (gelatinase A (MMP-2)): 21 nM
inhibition at 0.1 µM (MMP-14): 14%
inhibition at 5 µM (MMP-14): 89%

CC(C)c1ccc2c(c1)CCN(S(=O)(=O)C[C@H]([C@H]1CCCO1)N(O)C=O)C2 [Example 45, N-hydroxy-N-{(1S)-2-[(6-isopropyl-3,4-dihydroisoquinolin-2(1H)-yl)sulfonyl]-1-[(2R)-tetrahydrofuran-2-yl]ethyl}formamide]
IC50 (metalloelastase (MMP-12)): 1.5 nM
IC50 (gelatinase A (MMP-2)): 25 nM
inhibition at 5 µM (MMP-14): 92%
